Data as given in ChEMBL document CHEMBL1134058, “Phospho-Azatyrosine, a less effective protein-tyrosine phosphatase substrate than phosphotyrosine” (Bioorg Med Chem Lett, 2001).
Numbered stars: 1 amine (or outer) side, 2 acyl side, 3 side chain; on linkers, the order of the positions; unused ones are H or OH. Square brackets hold non-standard residues; d marks the D form. Peptide text beside a SMILES is read from it. X1 = O=C([C@H](Cc1ccc(OP(=O)(O)O)cn1)N[*:1])[*:2]; pY = N[C@@H](Cc1ccc(OP(=O)(O)O)cc1)C(=O)O

Target: T1, Tyrosine-protein phosphatase non-receptor type 1 (Homo sapiens) (UniProt P18031)
T1 sequence (whole entry): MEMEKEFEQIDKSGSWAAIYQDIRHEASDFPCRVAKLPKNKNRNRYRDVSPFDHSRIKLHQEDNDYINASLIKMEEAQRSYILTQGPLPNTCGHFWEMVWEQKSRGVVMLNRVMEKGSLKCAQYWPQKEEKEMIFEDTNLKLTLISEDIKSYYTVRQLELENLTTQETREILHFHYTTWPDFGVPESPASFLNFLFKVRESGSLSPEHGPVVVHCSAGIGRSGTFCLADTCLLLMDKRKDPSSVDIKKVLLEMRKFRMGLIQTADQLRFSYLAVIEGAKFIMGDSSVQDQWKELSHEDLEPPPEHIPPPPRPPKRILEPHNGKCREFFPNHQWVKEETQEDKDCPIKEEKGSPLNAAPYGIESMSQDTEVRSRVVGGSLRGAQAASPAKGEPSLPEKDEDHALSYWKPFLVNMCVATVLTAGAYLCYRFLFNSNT
Experiment: Catalytic turnover rate was determined.

CC(=O)N[C@@H](CC(=O)O)C(=O)N[C@@H](C)C(=O)N[C@@H](CC(=O)O)C(=O)N[C@@H](CCC(=O)O)C(=O)N[C@@H](Cc1ccc(OP(=O)(O)O)cc1)C(=O)N[C@@H](CC(C)C)C(N)=O (Ac-DADE[pY]L-NH2)
k cat: 68 s⁻¹

CC(=O)N[C@@H](CC(=O)O)C(=O)N[C@@H](C)C(=O)N[C@@H](CC(=O)O)C(=O)N[C@@H](CCC(=O)O)C(=O)N[C@@H](Cc1ccc(OP(=O)(O)O)cn1)C(=O)N[C@@H](CC(C)C)C(N)=O (Ac-DADE[X1]L-NH2)
k cat: 52 s⁻¹
